From patent publication US20160009693A1, “HERBICIDAL COMPOUNDS” (SYNGENTA LIMITED, priority 2013, published 2016)

How the values were obtained:
Assay type in all cases: in vivo
Conditions in all cases: applied at 1000 g/h, evaluated after 13 days
[1] = tested on: Alopecurus myosuroides (ALOMY); assay: Herbicidal glasshouse test, pre-emergence, ALOMY
Setaria faberi (SETFA) [2] = assay: Herbicidal glasshouse test, pre-emergence, SETFA
[3] = tested on: Echinochloa crus-galli (ECHCG); assay: Herbicidal glasshouse test, pre-emergence, ECHCG
Summary of the method: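 Echinochloa crus-galli seeds were sown in standard soil in pots and grown for one day in a glasshouse at 24/16° C. day/night, 14 hours light and 65% humidity. Pre-emergence spraying used an aqueous solution of the active ingredient in acetone/water (50:50) with 0.5% Tween 20. Damage was scored after 13 days on a five point scale.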

Solanum nigrum (SOLNI) [4] = assay: Herbicidal glasshouse test, pre-emergence, SOLNI
Summary of the method: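 Seeds of Solanum nigrum were sown in pots of standard soil and kept one day in a glasshouse at 24/16° C. day/night, 14 hours light and 65% humidity. For the pre-emergence treatment they were then sprayed with an aqueous solution of the active ingredient formulated in acetone/water (50:50) containing 0.5% Tween 20. Plant damage was rated after 13 days.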

[5] = tested on: Amaranthus retoflexus (AMARE); assay: Herbicidal glasshouse test, pre-emergence, AMARE
Summary of the method: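 Amaranthus retoflexus seeds were sown in pots of standard soil and kept one day in a glasshouse at 24/16° C. (day/night), 14 hours light and 65% humidity. They were then sprayed pre-emergence with the active ingredient in acetone/water (50:50) containing 0.5% Tween 20. Plants grew under the same conditions, watered twice daily, and percentage damage was scored after 13 days.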

[6] = tested on: Ipomoea hederacea (IPOHE); assay: Herbicidal glasshouse test, pre-emergence, IPOHE
[7] = tested on: Alopecurus myosuroides (ALOMY); assay: Herbicidal glasshouse test, post-emergence, ALOMY
Setaria faberi (SETFA) [8] = assay: Herbicidal glasshouse test, post-emergence, SETFA
Summary of the method: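 Setaria faberi seeds were sown in standard soil in pots and grown for 8 days in a glasshouse at 24/16° C. day/night, 14 hours light and 65% humidity. The seedlings were then sprayed post-emergence with the active ingredient in acetone/water (50:50) containing 0.5% Tween 20. Afterwards they were kept under the same conditions, watered twice daily, and scored for percentage damage on a five point scale.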

[9] = tested on: Echinochloa crus-galli (ECHCG); assay: Herbicidal glasshouse test, post-emergence, ECHCG
Summary of the method: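 Echinochloa crus-galli (ECHCG) seeds were sown in standard soil in pots and grown for 8 days in a glasshouse at 24/16° C. day/night, 14 hours light and 65% humidity. The young plants were then sprayed post-emergence with the active ingredient in acetone / water (50:50) containing 0.5% Tween 20. Damage was scored after 13 days.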

Solanum nigrum (SOLNI) [10] = assay: Herbicidal glasshouse test, post-emergence, SOLNI
[11] = tested on: Amaranthus retoflexus (AMARE); assay: Herbicidal glasshouse test, post-emergence, AMARE
Summary of the method: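 Amaranthus retoflexus (AMARE) seeds were sown in pots of standard soil and grown in a glasshouse at 24/16° C. day/night, 14 hours light and 65% humidity for 8 days. The plants were then sprayed post-emergence with an aqueous solution of the active ingredient in acetone/water (50:50) with 0.5% Tween 20. Damage was scored after 13 days.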

[12] = tested on: Ipomoea hederacea (IPOHE); assay: Herbicidal glasshouse test, post-emergence, IPOHE

Cn1nnnc1NC(=O)c1nn(C)c(=O)n(-c2cc(C(F)(F)F)cc(C(F)(F)F)c2)c1=O [Compound 1.032]
5 (5=80-100%): PRE Application ALOMY, percentage damage (five point scale) [1] | PRE Application SETFA, percentage damage (five point scale) (Setaria faberi (SETFA) [2]) | PRE Application ECHCG, percentage damage (five point scale) [3] | PRE Application SOLNI, percentage damage (five point scale) (Solanum nigrum (SOLNI) [4]) | PRE Application AMARE, percentage damage (five point scale) [5] | POST Application ALOMY, percentage damage (five point scale) [7] | POST Application ECHCG, percentage damage (five point scale) [9] | POST Application SOLNI, percentage damage (five point scale) (Solanum nigrum (SOLNI) [10]) | POST Application AMARE, percentage damage (five point scale) [11] | POST Application IPOHE, percentage damage (five point scale) [12]
4 (4=60-79%): PRE Application IPOHE, percentage damage (five point scale) [6] | POST Application SETFA, percentage damage (five point scale) (Setaria faberi (SETFA) [8])

Cn1nnnc1NC(=O)c1nn(C)c(=O)n(-c2cccc(Br)c2)c1=O [Compound 1.033]
5 (5=80-100%): PRE Application ALOMY, percentage damage (five point scale) [1] | PRE Application SETFA, percentage damage (five point scale) (Setaria faberi (SETFA) [2]) | PRE Application ECHCG, percentage damage (five point scale) [3] | PRE Application SOLNI, percentage damage (five point scale) (Solanum nigrum (SOLNI) [4]) | PRE Application AMARE, percentage damage (five point scale) [5] | PRE Application IPOHE, percentage damage (five point scale) [6] | POST Application ALOMY, percentage damage (five point scale) [7] | POST Application SETFA, percentage damage (five point scale) (Setaria faberi (SETFA) [8]) | POST Application ECHCG, percentage damage (five point scale) [9] | POST Application SOLNI, percentage damage (five point scale) (Solanum nigrum (SOLNI) [10]) | POST Application AMARE, percentage damage (five point scale) [11] | POST Application IPOHE, percentage damage (five point scale) [12]

CCOc1cccc(-n2c(=O)c(C(=O)Nc3nnnn3C)nn(C)c2=O)c1 [Compound 1.034]
5 (5=80-100%): PRE Application ALOMY, percentage damage (five point scale) [1] | PRE Application SETFA, percentage damage (five point scale) (Setaria faberi (SETFA) [2]) | PRE Application ECHCG, percentage damage (five point scale) [3] | PRE Application SOLNI, percentage damage (five point scale) (Solanum nigrum (SOLNI) [4]) | PRE Application AMARE, percentage damage (five point scale) [5] | PRE Application IPOHE, percentage damage (five point scale) [6] | POST Application ALOMY, percentage damage (five point scale) [7] | POST Application SETFA, percentage damage (five point scale) (Setaria faberi (SETFA) [8]) | POST Application ECHCG, percentage damage (five point scale) [9] | POST Application SOLNI, percentage damage (five point scale) (Solanum nigrum (SOLNI) [10]) | POST Application AMARE, percentage damage (five point scale) [11] | POST Application IPOHE, percentage damage (five point scale) [12]

Cn1nnnc1NC(=O)c1nn(C)c(=O)n(-c2cc(Cl)cc(Cl)c2)c1=O [Compound 1.035]
5 (5=80-100%): PRE Application ALOMY, percentage damage (five point scale) [1] | PRE Application ECHCG, percentage damage (five point scale) [3] | PRE Application SOLNI, percentage damage (five point scale) (Solanum nigrum (SOLNI) [4]) | PRE Application AMARE, percentage damage (five point scale) [5] | PRE Application IPOHE, percentage damage (five point scale) [6] | POST Application ALOMY, percentage damage (five point scale) [7] | POST Application SETFA, percentage damage (five point scale) (Setaria faberi (SETFA) [8]) | POST Application ECHCG, percentage damage (five point scale) [9] | POST Application SOLNI, percentage damage (five point scale) (Solanum nigrum (SOLNI) [10]) | POST Application AMARE, percentage damage (five point scale) [11] | POST Application IPOHE, percentage damage (five point scale) [12]
4 (4=60-79%): PRE Application SETFA, percentage damage (five point scale) (Setaria faberi (SETFA) [2])

Cc1cc(-n2c(=O)c(C(=O)Nc3nnnn3C)nn(C)c2=O)ccc1F [Compound 1.037]
5 (5=80-100%): PRE Application ALOMY, percentage damage (five point scale) [1] | PRE Application SETFA, percentage damage (five point scale) (Setaria faberi (SETFA) [2]) | PRE Application ECHCG, percentage damage (five point scale) [3] | PRE Application SOLNI, percentage damage (five point scale) (Solanum nigrum (SOLNI) [4]) | PRE Application AMARE, percentage damage (five point scale) [5] | PRE Application IPOHE, percentage damage (five point scale) [6] | POST Application ALOMY, percentage damage (five point scale) [7] | POST Application SETFA, percentage damage (five point scale) (Setaria faberi (SETFA) [8]) | POST Application ECHCG, percentage damage (five point scale) [9] | POST Application SOLNI, percentage damage (five point scale) (Solanum nigrum (SOLNI) [10]) | POST Application AMARE, percentage damage (five point scale) [11] | POST Application IPOHE, percentage damage (five point scale) [12]

Cc1cc(C)cc(-n2c(=O)c(C(=O)Nc3nnnn3C)nn(C)c2=O)c1 [Compound 1.038]
5 (5=80-100%): PRE Application ALOMY, percentage damage (five point scale) [1] | PRE Application SETFA, percentage damage (five point scale) (Setaria faberi (SETFA) [2]) | PRE Application ECHCG, percentage damage (five point scale) [3] | PRE Application SOLNI, percentage damage (five point scale) (Solanum nigrum (SOLNI) [4]) | PRE Application AMARE, percentage damage (five point scale) [5] | PRE Application IPOHE, percentage damage (five point scale) [6] | POST Application ALOMY, percentage damage (five point scale) [7] | POST Application SETFA, percentage damage (five point scale) (Setaria faberi (SETFA) [8]) | POST Application ECHCG, percentage damage (five point scale) [9] | POST Application SOLNI, percentage damage (five point scale) (Solanum nigrum (SOLNI) [10]) | POST Application AMARE, percentage damage (five point scale) [11] | POST Application IPOHE, percentage damage (five point scale) [12]

Cn1nnnc1NC(=O)c1nn(C)c(=O)n(-c2ccc(OC(F)(F)F)cc2)c1=O [Compound 1.039]
5 (5=80-100%): PRE Application ALOMY, percentage damage (five point scale) [1] | PRE Application SETFA, percentage damage (five point scale) (Setaria faberi (SETFA) [2]) | PRE Application ECHCG, percentage damage (five point scale) [3] | PRE Application SOLNI, percentage damage (five point scale) (Solanum nigrum (SOLNI) [4]) | PRE Application AMARE, percentage damage (five point scale) [5] | PRE Application IPOHE, percentage damage (five point scale) [6] | POST Application ALOMY, percentage damage (five point scale) [7] | POST Application SETFA, percentage damage (five point scale) (Setaria faberi (SETFA) [8]) | POST Application ECHCG, percentage damage (five point scale) [9] | POST Application SOLNI, percentage damage (five point scale) (Solanum nigrum (SOLNI) [10]) | POST Application AMARE, percentage damage (five point scale) [11] | POST Application IPOHE, percentage damage (five point scale) [12]

Cn1nnnc1NC(=O)c1nn(C)c(=O)n(-c2ccc(C(C)(C)C)cc2)c1=O [Compound 1.040]
4 (4=60-79%): POST Application ALOMY, percentage damage (five point scale) [7] | POST Application IPOHE, percentage damage (five point scale) [12]
3 (3=40-59%): PRE Application IPOHE, percentage damage (five point scale) [6]
5 (5=80-100%): PRE Application ALOMY, percentage damage (five point scale) [1] | PRE Application SETFA, percentage damage (five point scale) (Setaria faberi (SETFA) [2]) | PRE Application ECHCG, percentage damage (five point scale) [3] | PRE Application SOLNI, percentage damage (five point scale) (Solanum nigrum (SOLNI) [4]) | PRE Application AMARE, percentage damage (five point scale) [5] | POST Application SETFA, percentage damage (five point scale) (Setaria faberi (SETFA) [8]) | POST Application ECHCG, percentage damage (five point scale) [9] | POST Application SOLNI, percentage damage (five point scale) (Solanum nigrum (SOLNI) [10]) | POST Application AMARE, percentage damage (five point scale) [11]

Cn1nnnc1NC(=O)c1nn(C)c(=O)n(-c2ccc(Cl)c(Cl)c2)c1=O [Compound 1.041]
5 (5=80-100%): PRE Application ALOMY, percentage damage (five point scale) [1] | PRE Application ECHCG, percentage damage (five point scale) [3] | PRE Application SOLNI, percentage damage (five point scale) (Solanum nigrum (SOLNI) [4]) | PRE Application AMARE, percentage damage (five point scale) [5] | PRE Application IPOHE, percentage damage (five point scale) [6] | POST Application ALOMY, percentage damage (five point scale) [7] | POST Application SETFA, percentage damage (five point scale) (Setaria faberi (SETFA) [8]) | POST Application ECHCG, percentage damage (five point scale) [9] | POST Application SOLNI, percentage damage (five point scale) (Solanum nigrum (SOLNI) [10]) | POST Application AMARE, percentage damage (five point scale) [11] | POST Application IPOHE, percentage damage (five point scale) [12]
4 (4=60-79%): PRE Application SETFA, percentage damage (five point scale) (Setaria faberi (SETFA) [2])

Cn1nnnc1NC(=O)c1nn(C)c(=O)n(-c2cc(F)cc(F)c2)c1=O [Compound 1.042]
5 (5=80-100%): PRE Application ALOMY, percentage damage (five point scale) [1] | PRE Application SETFA, percentage damage (five point scale) (Setaria faberi (SETFA) [2]) | PRE Application ECHCG, percentage damage (five point scale) [3] | PRE Application SOLNI, percentage damage (five point scale) (Solanum nigrum (SOLNI) [4]) | PRE Application AMARE, percentage damage (five point scale) [5] | PRE Application IPOHE, percentage damage (five point scale) [6] | POST Application ALOMY, percentage damage (five point scale) [7] | POST Application SETFA, percentage damage (five point scale) (Setaria faberi (SETFA) [8]) | POST Application ECHCG, percentage damage (five point scale) [9] | POST Application SOLNI, percentage damage (five point scale) (Solanum nigrum (SOLNI) [10]) | POST Application AMARE, percentage damage (five point scale) [11] | POST Application IPOHE, percentage damage (five point scale) [12]
